Reference: BindingDB's records for doi:10.7270/Q2TX3CSC (Vanderbilt Screening Center for GPCRs, Ion Channels and …, 2009)

Target: T1, Solute carrier family 12 member 5 (Homo sapiens, UniProt Q9H2X9)
T1 sequence (Q9H2X9 whole entry): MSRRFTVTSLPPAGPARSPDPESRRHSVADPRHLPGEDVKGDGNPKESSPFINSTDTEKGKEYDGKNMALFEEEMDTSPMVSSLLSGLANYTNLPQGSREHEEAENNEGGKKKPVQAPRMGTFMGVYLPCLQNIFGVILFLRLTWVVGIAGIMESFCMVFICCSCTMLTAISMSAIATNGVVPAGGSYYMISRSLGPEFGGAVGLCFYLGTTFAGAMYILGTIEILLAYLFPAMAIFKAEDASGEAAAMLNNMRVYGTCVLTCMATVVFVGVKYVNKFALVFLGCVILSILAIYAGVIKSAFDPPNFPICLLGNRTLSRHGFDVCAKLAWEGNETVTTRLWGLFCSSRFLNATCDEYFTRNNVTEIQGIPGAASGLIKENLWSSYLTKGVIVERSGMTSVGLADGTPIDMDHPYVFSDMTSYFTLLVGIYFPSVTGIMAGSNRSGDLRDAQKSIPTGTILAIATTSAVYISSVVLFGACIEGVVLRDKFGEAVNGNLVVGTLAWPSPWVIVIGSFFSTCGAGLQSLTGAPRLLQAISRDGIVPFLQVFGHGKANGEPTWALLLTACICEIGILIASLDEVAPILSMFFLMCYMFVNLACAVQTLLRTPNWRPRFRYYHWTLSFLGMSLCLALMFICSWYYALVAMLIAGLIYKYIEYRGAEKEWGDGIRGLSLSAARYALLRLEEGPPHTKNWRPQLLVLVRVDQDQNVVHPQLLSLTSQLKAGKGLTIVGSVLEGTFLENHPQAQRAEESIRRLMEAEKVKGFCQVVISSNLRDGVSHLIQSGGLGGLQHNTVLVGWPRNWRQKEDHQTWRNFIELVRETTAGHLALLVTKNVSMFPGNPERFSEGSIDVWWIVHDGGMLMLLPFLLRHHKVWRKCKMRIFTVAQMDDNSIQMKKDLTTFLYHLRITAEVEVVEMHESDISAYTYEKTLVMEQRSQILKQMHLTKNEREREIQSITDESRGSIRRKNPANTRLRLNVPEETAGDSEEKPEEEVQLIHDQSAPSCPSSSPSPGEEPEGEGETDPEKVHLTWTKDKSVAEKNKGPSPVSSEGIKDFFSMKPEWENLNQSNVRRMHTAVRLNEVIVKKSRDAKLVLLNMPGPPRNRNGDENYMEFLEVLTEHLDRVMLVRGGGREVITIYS
Test: KCC2 modulator potency by thallium flux, dose response, cell-based, HEK293 KCC2, FluoZin-2 fluorescence (AID 1736)

[1] = inactive by the depositor's call

EC50 [µM] | EC50 [1] [µM] | Structure (SMILES)
0.478 |  | O=C(OCC(=O)N1CCN(C(=O)c2ccco2)CC1)c1sc2ccccc2c1Cl [3-chloro-1-benzothiophene-2-carboxylic acid [2-[4-[2-furanyl(oxo)methyl]-1-piperazinyl]-2-oxoethyl] ester]
6 |  | COCCNS(=O)(=O)c1ccc(-c2ccc(Cl)cc2)cc1 [4'-chloro-N-(2-methoxyethyl)-4-biphenylsulfonamide]
1.48 |  | Cc1c(N=C2Nc3cccc4cccc2c34)c(=O)n(-c2ccccc2)n1C [4-(2-benzo[cd]indolylamino)-1,5-dimethyl-2-phenyl-3-pyrazolone]
5.37 |  | O=C(OCC(=O)N1CCc2ccccc2C1)c1ccc(N2CCOCC2)c([N+](=O)[O-])c1 [4-(4-morpholinyl)-3-nitrobenzoic acid [2-(3,4-dihydro-1H-isoquinolin-2-yl)-2-oxoethyl] ester]
23.3 |  | O=C(NC(=S)NNC(=O)c1cnccn1)c1ccc(Cl)cc1 [4-Chloro-N-[N'-(pyrazine-2-carbonyl)-hydrazinocarbothioyl]-benzamide]
0.725 |  | COc1ccc(-c2cc(CCCC(=O)NCCc3ccccc3)no2)cc1 [4-[5-(4-methoxyphenyl)-1,2-oxazol-3-yl]-N-(2-phenylethyl)butanamide]
44.9 |  | COCCN1C(=O)/C(=C/c2ccc(OCc3ccc(C(=O)O)cc3)c(OC)c2)S/C1=N/c1ccccc1 [4-[(2-methoxy-4-{[3-(2-methoxyethyl)-4-oxo-2-(phenylimino)-1,3-thiazolidin-5-ylidene]methyl}phenoxy)methyl]benzoic acid]
6.8 |  | O=S(=O)(Nc1nc2ccccc2nc1N1CCN(c2ccccn2)CC1)c1ccc(Cl)cc1 [4-chloranyl-N-[3-(4-pyridin-2-ylpiperazin-1-yl)quinoxalin-2-yl]benzenesulfonamide]
1.49 |  | COc1ccc(S(=O)(=O)N(C)CC(=O)N2CCN(Cc3ccccc3)CC2)cc1C [4-methoxy-N,3-dimethyl-N-[2-oxidanylidene-2-[4-(phenylmethyl)piperazin-1-yl]ethyl]benzenesulfonamide]
 | 0.178 | COc1ccc(C(=O)NC(=S)N2CCN(c3ccc([N+](=O)[O-])cc3)CC2)cc1 [4-methoxy-N-[4-(4-nitrophenyl)piperazin-1-yl]carbothioyl-benzamide]
2690 |  | Cc1ccc(CSCCNC(=O)c2ccc(C)cc2)cc1 [4-methyl-N-[2-[(4-methylbenzyl)thio]ethyl]benzamide]
2.85 |  | O=C(NCC1CCCN(C(=O)c2cccnc2)C1)c1ccc(-c2ccccc2)cc1 (stereo not drawn) [4-phenyl-N-[(1-pyridin-3-ylcarbonylpiperidin-3-yl)methyl]benzamide]
14.3 |  | O=C(OCc1ccccn1)c1ccc(COc2ccccc2Cl)o1 [5-(2-Chloro-phenoxymethyl)-furan-2-carboxylic acid pyridin-2-ylmethyl ester]
3.58 |  | N#Cc1nc(-c2cccs2)oc1N1CCN(Cc2ccccc2)CC1 [5-(4-benzyl-1-piperazinyl)-2-(2-thienyl)-1,3-oxazole-4-carbonitrile]
668 |  | O=C(NCc1cccnc1)c1ccc(COc2ccc(Cl)cc2Cl)o1 [5-[(2,4-dichlorophenoxy)methyl]-N-(3-pyridinylmethyl)-2-furancarboxamide]

The remaining lines, values behind:

Structure (SMILES) | EC50 [µM] | EC50 [1] [µM]
O=C(O)CCN(Cc1ccccc1)S(=O)(=O)c1c(Cl)cccc1Cl [3-[(2,6-dichlorophenyl)sulfonyl-(phenylmethyl)amino]propanoic acid] | 59.2 | 
Fc1ccccc1CSc1nncn1NC/C=C/c1ccccc1 [3-[(2-fluorophenyl)methylsulfanyl]-N-[(E)-3-phenylprop-2-enyl]-1,2,4-triazol-4-amine] |  | 0.0567
Cc1ccc(S(=O)(=O)N(CCC(=O)O)Cc2ccc(Cl)cc2)cc1 [3-[(4-chlorobenzyl)-tosyl-amino]propionic acid] | 0.491 | 
Fc1ccc(CSc2nncn2NC/C=C/c2ccccc2)cc1 [3-[(4-fluorobenzyl)thio]-N-(3-phenyl-2-propen-1-yl)-4H-1,2,4-triazol-4-amine] | 30.2 | 
CC1(CCc2ccccc2)NC(=O)N(Cc2nnc(-c3ccccc3Br)o2)C1=O (stereo not drawn) [3-[[5-(2-bromophenyl)-1,3,4-oxadiazol-2-yl]methyl]-5-methyl-5-(2-phenylethyl)imidazolidine-2,4-dione] | 14.3 | 
CCOc1cc(S(=O)(=O)NCc2ccccc2)ccc1F [3-ethoxy-4-fluoranyl-N-(phenylmethyl)benzenesulfonamide] | 5.92 | 
C=C(C)Cn1c(N2CCC(Cc3ccccc3)CC2)nc2c1c(=O)[nH]c(=O)n2C [3-methyl-7-(2-methylprop-2-enyl)-8-[4-(phenylmethyl)-1-piperidinyl]purine-2,6-dione] | 20.4 | 
O=c1oc2ccccc2c(Nc2cc3ccccc3cc2O)c1[N+](=O)[O-] [3-nitro-4-[(3-oxidanylnaphthalen-2-yl)amino]chromen-2-one] |  | 11.4
CCOC(=O)c1cc2c(ccn2-c2ccc(F)cc2)n1CC(=O)NC(C)(C)C [4-[2-(tert-butylamino)-2-keto-ethyl]-1-(4-fluorophenyl)pyrrolo[3,2-b]pyrrole-5-carboxylic acid ethyl ester] | 51100 | 
Cc1n[nH]c(O)c1C(c1ccc(-c2ccc(F)cc2)o1)c1c(C)n[nH]c1O [4-[[5-(4-fluorophenyl)furan-2-yl]-(3-methyl-5-oxo-1,2-dihydropyrazol-4-yl)methyl]-5-methyl-1,2-dihydropyrazol-3-one] | 8.39 | 
CCOc1cc(Br)ccc1S(=O)(=O)NCc1ccccc1 [4-bromanyl-2-ethoxy-N-(phenylmethyl)benzenesulfonamide] | 14.7 | 
CSc1sc(-c2nnc(S)n2C)c2c1C=CCC2 [4-methyl-3-[3-(methylthio)-6,7-dihydro-2-benzothiophen-1-yl]-1H-1,2,4-triazole-5-thione] |  | 15.7
Sc1nnc(Cc2cccc3ccccc23)o1 [5-(1-naphthalenylmethyl)-3H-1,3,4-oxadiazole-2-thione] | 0.304 | 
Sc1nnc(C2(c3ccccc3)CCCC2)o1 [5-(1-phenylcyclopentyl)-3H-1,3,4-oxadiazole-2-thione] | 3.3 | 
Sc1nnc(Cc2c[nH]c3ccccc23)o1 [5-(1H-indol-3-ylmethyl)-1,3,4-oxadiazole-2(3H)-thione] | 16.1 | 
N#Cc1nc(Cc2cccc3ccccc23)oc1NCCN1CCOCC1 [5-(2-Morpholin-4-yl-ethylamino)-2-naphthalen-1-ylmethyl-oxazole-4-carbonitrile] | 5.4 | 
COc1cccc(Nc2nnc(S)s2)c1 [5-(3-methoxyanilino)-3H-1,3,4-thiadiazole-2-thione] | 3.05 | 
Sc1nnc(COc2ccc(Cl)cc2)o1 [5-(4-Chloro-phenoxymethyl)-3H-[1,3,4]oxadiazole-2-thione] | 9.34 | 
N#Cc1nc(Cc2cccc3ccccc23)oc1N1CCOCC1 [5-(4-morpholinyl)-2-(1-naphthalenylmethyl)-4-oxazolecarbonitrile] | 1.32 | 
Cc1cccc(OCCc2nnc(N)s2)c1C [5-[2-(2,3-Dimethyl-phenoxy)-ethyl]-[1,3,4]thiadiazol-2-ylamine] | 37.5 | 
Sc1nnc(CCc2ccc(Cl)cc2)o1 [5-[2-(4-chlorophenyl)ethyl]-1,3,4-oxadiazole-2-thiol] | 0.991 | 
COc1cccc(C=c2sc(=CC(=O)c3ccc(C)cc3)[nH]c2=O)c1OC [5-[(2,3-dimethoxyphenyl)methylidene]-2-[2-(4-methylphenyl)-2-oxidanylidene-ethylidene]-1,3-thiazolidin-4-one] | 15.5 | 
O=C(NCc1ccc2c(c1)OCO2)c1ccc(COc2cc(Cl)ccc2Cl)o1 [5-[(2,5-dichlorophenoxy)methyl]-N-piperonyl-2-furamide] | 6.14 | 
O=C(NCCc1cn2ccccc2n1)c1cc(COc2c(F)cccc2F)on1 [5-[(2,6-difluorophenoxy)methyl]-N-(2-imidazo[1,2-a]pyridin-2-ylethyl)-1,2-oxazole-3-carboxamide] | 78.9 | 
O=C(NCCCn1ncc2ccccc21)c1cc(COc2c(F)cccc2F)on1 [5-[(2,6-difluorophenoxy)methyl]-N-(3-indazol-1-ylpropyl)-1,2-oxazole-3-carboxamide] |  | 18.7
Cc1ccc(CN(C)C(=O)c2cc(COc3ccc(F)cc3Cl)on2)o1 [5-[(2-chloranyl-4-fluoranyl-phenoxy)methyl]-N-methyl-N-[(5-methylfuran-2-yl)methyl]-1,2-oxazole-3-carboxamide] |  | 89.2
Sc1nnc(CNc2cccc(Cl)c2)o1 [5-[(3-chloroanilino)methyl]-3H-1,3,4-oxadiazole-2-thione] | 1.75 | 
Sc1nnc(Nc2ccccc2)s1 [5-anilino-3H-1,3,4-thiadiazole-2-thione] | 2.84 | 
